Measurements as given in ChEMBL document CHEMBL1201862, “PubChem BioAssay data set” (2004).
The source made the active and inactive calls.

Columns and labels:
[1] = molecular target: Adenosylmethionine-8-amino-7-oxononanoate aminotransferase (Mycobacterium tuberculosis, UniProt P9WQ81); test: Mycobacterium tuberculosis BioA enzyme inhibitor Measured in Biochemical System Using Plate Reader - 2163-02_Inhibitor_Dose_CherryPick_Activity.; format: functional, Mycobacterium tuberculosis UT205
[2] = AlphaScreen signal interference compounds, dose response, artefact control for ARNT-TACC3 interaction inhibitor project, biochemical, luminescence, cherry-pick (AID 651705); format: functional;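 further: AlphaScreen bead proximity signal that flags compounds interfering with the detection technology; potency reflects signal decrease which marks the compound as an assay artifact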
Beta-galactosidase = Beta-galactosidase (Escherichia coli, UniProt Q8VNN2); test: PubChem AID 485352; format: functional
[3] = molecular target: T1, Type-1 angiotensin II receptor (Homo sapiens, UniProt P30556); test: AT1 receptor antagonists, dose response, selectivity assay for APJ receptor antagonist project, cell-based, uHTS hits (AID 463214); format: functional;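 further: antagonist potency against angiotensin II stimulated AT1 response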
T1 sequence (P30556 whole entry): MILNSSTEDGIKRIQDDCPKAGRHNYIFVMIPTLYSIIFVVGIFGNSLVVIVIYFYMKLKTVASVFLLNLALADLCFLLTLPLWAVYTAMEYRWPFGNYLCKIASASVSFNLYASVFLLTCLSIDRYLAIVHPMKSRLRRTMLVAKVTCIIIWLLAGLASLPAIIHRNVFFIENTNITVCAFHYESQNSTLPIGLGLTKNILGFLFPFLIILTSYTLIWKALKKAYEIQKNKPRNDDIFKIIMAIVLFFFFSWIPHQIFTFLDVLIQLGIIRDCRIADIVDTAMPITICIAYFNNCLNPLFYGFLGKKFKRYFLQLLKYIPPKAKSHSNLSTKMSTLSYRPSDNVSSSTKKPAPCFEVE

[4] = growth suppression of PTEN-null colon cells, dose response, cell-based, HCT116 PTEN knockout (AID 1047); format: functional;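 further: HCT116 colon tumor cells with PTEN knocked out; cells exposed to compound for 60 hours before readout; potency for loss of cell viability measured by luminescence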
[5] = growth suppression of beta-catenin-knockout colon cells, dose response, cell-based, HCT116, human colon tumor (AID 1045); format: functional;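 further: HCT116 colon tumor cells with beta catenin knocked out; cells exposed to compound for 60 hours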
[6] = THP-1 cell cytotoxicity, dose response, cytotoxicity control for non-replicating M. tuberculosis project (AID 489025); format: functional
[7] = Vero E6 cell cytotoxicity, dose response, cytotoxicity control for non-replicating M. tuberculosis project, secondary assay (AID 492998); format: functional, VeroE6; details: Vero C1008
cells = format: functional
[8] = molecular target: Tyrosine-protein phosphatase non-receptor type 11 (Homo sapiens, UniProt Q06124); test: SHP2 phosphatase inhibition, dose response, selectivity assay for STEP inhibitor project, biochemical (AID 602367); format: functional; details: read-out: IC50_Mean
[9] = molecular target: Tyrosine-protein phosphatase non-receptor type 5 (Homo sapiens, UniProt P54829); test: STEP phosphatase inhibitors, confirmation, biochemical, fluorescence intensity, uHTS hits (AID 602372); format: functional; details: read-out: IC50_Mean
[10] = molecular target: Dual specificity protein phosphatase 3 (Homo sapiens, UniProt P51452); test: VHR phosphatase inhibition, dose response, selectivity assay for STEP inhibitor project, biochemical (AID 602374); format: functional; details: read-out: IC50_Mean
[11] = tested on: Streptococcus sp. 'group A'; test: growth inhibition of control SK(-) GAS strain, dose response, counter-screen for streptokinase expression inhibitor project, luminescence, kanamycin, BacTiterGlo, confirmation (AID 1900); format: functional, organism-based
Streptococcus = test: Group A Streptococcus viability loss, dose response, counter-screen for streptokinase expression inhibitor project, luminescence, BacTiterGlo (AID 1915); format: functional, organism-based;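 further: potency for reduction of bacterial viability or growth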
Vero = Vero cell cytotoxicity, cytotoxicity control for flavivirus capping enzyme inhibitors (AID 588742); format: functional; details: Chlorocebus sabaeus
INS1 = test: beta cell apoptosis inhibitors, cytokine rescue, dose response, luminescence, retest (AID 449756); format: functional, cell-based; details: Rattus norvegicus;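 further: cell death triggered by IL-1 beta plus TNF-alpha plus IFN-gamma mixture; protective hits raise ATP signal compared with cytokine alone wells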
[12] = THP-1 cell cytotoxicity, dose response, cytotoxicity control for Vif-APOBEC3G degradation inhibitor project, THP-1 cells (AID 1117359); format: functional; details: Human immunodeficiency virus 1, THP-1
[13] = ARNT/TACC3 interaction disruptors, potency, confirmation, biochemical, AlphaScreen, cherry-picked samples (AID 651703); format: functional, Homo sapiens;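 further: His-tagged ARNT PAS-B domain paired with GST-TACC3 E629A dimer coactivator fragment; potency of inhibitors that break up the complex and lower AlphaScreen signal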
Hexokinase HKDC1 = molecular target: T2, Hexokinase HKDC1 (Homo sapiens, UniProt Q2TB90); test: HKDC1 hexokinase inhibitors, dose response, biochemical, W721R variant (AID 504729); format: functional
T2 sequence (Q2TB90 whole entry): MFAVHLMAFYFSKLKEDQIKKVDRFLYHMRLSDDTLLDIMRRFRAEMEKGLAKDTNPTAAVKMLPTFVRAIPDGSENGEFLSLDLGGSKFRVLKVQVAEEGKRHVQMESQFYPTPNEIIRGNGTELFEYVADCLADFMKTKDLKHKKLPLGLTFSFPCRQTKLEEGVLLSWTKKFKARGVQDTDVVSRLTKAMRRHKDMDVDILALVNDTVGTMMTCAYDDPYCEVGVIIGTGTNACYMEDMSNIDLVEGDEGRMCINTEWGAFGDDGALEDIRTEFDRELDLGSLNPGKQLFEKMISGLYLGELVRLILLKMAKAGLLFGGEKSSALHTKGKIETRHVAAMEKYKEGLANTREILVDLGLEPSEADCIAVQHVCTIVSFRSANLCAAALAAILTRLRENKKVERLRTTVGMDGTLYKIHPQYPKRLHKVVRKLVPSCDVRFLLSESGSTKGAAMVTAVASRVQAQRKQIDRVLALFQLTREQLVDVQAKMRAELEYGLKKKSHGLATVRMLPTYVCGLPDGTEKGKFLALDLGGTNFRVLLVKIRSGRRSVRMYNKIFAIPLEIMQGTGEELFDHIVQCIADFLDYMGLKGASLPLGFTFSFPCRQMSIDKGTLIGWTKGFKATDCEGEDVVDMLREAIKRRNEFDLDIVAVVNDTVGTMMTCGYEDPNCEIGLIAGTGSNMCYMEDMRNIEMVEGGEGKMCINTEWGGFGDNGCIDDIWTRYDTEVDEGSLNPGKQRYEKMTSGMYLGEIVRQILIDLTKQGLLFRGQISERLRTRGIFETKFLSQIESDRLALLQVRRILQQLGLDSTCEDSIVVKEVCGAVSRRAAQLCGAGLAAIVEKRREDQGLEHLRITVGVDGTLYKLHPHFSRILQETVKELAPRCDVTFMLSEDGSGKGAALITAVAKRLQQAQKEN

Genome polyprotein = Genome polyprotein (dengue virus type 2, UniProt P29990); test: Dengue-2 NS5 methyltransferase inhibitors, primary screen, biochemical, confirmation dose response (AID 588689); format: functional
[14] = molecular target: T3, Tyrosyl-DNA phosphodiesterase 2 (Homo sapiens, UniProt O95551); test: human TDP2 enzyme inhibitors, dose response, biochemical, epi absorbance, IC50 (AID 743297)
T3 sequence (O95551 whole entry): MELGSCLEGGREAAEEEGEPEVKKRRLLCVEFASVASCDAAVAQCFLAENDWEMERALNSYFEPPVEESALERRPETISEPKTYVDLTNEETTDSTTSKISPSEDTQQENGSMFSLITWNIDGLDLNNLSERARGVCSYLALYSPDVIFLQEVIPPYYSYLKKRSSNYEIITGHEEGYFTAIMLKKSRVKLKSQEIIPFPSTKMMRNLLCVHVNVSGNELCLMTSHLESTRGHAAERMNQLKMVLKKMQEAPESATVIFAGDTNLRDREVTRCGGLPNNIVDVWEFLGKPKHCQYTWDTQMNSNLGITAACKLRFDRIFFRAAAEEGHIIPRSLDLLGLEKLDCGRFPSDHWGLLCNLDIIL

[15] = molecular target: DNA (cytosine-5)-methyltransferase 1 (Homo sapiens, UniProt P26358); test: DNMT1 methyltransferase inhibitors, confirmation, biochemical, fluorescent molecular beacon (AID 602386); format: functional
[16] = molecular target: T4, Rac GTPase-activating protein 1 (Homo sapiens, UniProt Q9H0H5); test: MgcRacGAP GTPase-activating activity inhibitors, confirmation, biochemical, ADP Hunter fluorescence, primary and confirmatory (AID 624330); format: functional
T4 sequence (Q9H0H5 whole entry): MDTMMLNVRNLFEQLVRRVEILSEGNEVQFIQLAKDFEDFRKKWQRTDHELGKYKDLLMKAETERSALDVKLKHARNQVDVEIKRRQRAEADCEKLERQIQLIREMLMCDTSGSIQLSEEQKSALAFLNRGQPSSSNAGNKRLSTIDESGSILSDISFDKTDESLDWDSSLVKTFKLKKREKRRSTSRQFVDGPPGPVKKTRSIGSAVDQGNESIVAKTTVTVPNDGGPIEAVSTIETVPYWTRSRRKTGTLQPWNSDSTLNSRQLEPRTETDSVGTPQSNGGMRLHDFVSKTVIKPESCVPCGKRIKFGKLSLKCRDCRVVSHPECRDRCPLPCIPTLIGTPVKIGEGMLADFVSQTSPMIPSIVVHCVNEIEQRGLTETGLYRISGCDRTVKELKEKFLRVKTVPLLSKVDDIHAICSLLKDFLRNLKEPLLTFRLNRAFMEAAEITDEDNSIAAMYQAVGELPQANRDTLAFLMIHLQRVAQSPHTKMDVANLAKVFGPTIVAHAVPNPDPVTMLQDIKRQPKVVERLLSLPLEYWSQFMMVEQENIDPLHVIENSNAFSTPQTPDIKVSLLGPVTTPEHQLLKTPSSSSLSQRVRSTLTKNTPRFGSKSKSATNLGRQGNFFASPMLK

Phospholipase D1 = molecular target: T5, Phospholipase D1 (Homo sapiens, UniProt Q13393); test: PLD1 inhibitor potency in cells, dose response (AID 602151); format: functional;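 further: cellular PLD1 assay in Calu-1 cells stimulated with PMA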
T5 sequence (Q13393 whole entry): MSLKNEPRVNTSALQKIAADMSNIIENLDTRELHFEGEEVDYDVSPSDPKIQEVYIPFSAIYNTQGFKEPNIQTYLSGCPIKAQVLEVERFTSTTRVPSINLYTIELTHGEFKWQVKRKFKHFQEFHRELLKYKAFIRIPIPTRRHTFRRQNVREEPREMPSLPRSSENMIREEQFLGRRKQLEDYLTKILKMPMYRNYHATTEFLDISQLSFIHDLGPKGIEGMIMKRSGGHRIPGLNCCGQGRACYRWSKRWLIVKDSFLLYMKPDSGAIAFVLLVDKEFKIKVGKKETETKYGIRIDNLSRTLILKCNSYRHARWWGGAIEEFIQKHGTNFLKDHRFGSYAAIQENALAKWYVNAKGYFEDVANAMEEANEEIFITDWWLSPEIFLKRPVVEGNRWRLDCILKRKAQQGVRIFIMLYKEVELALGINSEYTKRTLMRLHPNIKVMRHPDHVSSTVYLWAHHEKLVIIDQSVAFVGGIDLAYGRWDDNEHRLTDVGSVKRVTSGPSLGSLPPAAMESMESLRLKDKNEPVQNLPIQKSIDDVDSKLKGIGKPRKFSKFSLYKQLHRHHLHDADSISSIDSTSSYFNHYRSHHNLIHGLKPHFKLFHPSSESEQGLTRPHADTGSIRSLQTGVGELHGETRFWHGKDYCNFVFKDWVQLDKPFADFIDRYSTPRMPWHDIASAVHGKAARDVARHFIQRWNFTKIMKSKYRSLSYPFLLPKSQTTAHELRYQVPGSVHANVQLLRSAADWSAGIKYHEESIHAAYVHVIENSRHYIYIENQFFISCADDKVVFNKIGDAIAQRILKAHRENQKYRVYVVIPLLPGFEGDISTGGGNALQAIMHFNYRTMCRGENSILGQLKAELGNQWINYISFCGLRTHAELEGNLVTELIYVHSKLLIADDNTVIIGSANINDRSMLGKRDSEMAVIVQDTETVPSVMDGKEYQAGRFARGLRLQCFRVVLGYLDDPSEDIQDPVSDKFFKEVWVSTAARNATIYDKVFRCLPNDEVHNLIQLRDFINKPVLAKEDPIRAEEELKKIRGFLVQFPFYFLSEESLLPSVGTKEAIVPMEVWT

Phospholipase D2 = Phospholipase D2 (Homo sapiens, UniProt O14939); test: PLD2 inhibitor potency in cells, dose response (AID 602147); format: functional;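 further: cellular assay in HEK293 cells overexpressing GFP-tagged PLD2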
Chain of Phospholipase D2 (O14939 whole entry): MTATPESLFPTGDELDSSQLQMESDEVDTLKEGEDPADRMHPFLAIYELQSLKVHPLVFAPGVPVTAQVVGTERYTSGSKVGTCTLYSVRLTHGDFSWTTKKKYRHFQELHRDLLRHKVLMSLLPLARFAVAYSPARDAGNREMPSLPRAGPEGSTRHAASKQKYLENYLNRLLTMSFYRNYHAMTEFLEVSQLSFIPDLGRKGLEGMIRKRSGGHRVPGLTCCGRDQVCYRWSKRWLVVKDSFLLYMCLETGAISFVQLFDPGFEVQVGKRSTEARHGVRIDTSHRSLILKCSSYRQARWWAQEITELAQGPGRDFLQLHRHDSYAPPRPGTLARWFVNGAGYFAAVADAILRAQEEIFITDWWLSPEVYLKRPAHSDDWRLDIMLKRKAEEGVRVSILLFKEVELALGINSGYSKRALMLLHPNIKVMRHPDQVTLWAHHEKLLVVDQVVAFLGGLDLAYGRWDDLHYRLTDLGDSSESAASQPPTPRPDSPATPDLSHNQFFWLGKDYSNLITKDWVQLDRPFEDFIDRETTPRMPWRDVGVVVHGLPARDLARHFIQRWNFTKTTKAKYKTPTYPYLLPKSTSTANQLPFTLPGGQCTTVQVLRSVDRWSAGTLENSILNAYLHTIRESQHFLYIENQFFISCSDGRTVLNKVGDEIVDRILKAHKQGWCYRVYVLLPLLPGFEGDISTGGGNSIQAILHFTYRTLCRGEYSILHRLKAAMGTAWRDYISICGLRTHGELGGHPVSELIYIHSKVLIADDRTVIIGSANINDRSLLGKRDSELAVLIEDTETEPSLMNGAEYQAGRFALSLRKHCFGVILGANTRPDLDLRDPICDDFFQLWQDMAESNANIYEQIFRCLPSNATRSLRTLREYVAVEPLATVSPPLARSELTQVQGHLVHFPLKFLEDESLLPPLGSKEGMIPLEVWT

Chain of Adenosylmethionine-8-amino-7-oxononanoate aminotransferase (P9WQ81 whole entry): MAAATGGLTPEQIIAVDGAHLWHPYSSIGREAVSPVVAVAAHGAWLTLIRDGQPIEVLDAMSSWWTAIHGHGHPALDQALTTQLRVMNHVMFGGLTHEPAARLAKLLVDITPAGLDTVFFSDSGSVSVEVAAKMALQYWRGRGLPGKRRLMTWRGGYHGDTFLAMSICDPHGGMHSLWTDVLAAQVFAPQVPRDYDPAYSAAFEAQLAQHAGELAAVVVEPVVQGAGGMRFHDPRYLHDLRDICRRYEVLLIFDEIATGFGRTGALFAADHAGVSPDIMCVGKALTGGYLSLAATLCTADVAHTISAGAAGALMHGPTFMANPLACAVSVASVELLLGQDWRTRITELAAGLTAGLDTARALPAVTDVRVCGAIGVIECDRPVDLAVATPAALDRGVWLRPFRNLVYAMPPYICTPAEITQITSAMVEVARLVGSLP
Chain of Beta-galactosidase (Q8VNN2 whole entry): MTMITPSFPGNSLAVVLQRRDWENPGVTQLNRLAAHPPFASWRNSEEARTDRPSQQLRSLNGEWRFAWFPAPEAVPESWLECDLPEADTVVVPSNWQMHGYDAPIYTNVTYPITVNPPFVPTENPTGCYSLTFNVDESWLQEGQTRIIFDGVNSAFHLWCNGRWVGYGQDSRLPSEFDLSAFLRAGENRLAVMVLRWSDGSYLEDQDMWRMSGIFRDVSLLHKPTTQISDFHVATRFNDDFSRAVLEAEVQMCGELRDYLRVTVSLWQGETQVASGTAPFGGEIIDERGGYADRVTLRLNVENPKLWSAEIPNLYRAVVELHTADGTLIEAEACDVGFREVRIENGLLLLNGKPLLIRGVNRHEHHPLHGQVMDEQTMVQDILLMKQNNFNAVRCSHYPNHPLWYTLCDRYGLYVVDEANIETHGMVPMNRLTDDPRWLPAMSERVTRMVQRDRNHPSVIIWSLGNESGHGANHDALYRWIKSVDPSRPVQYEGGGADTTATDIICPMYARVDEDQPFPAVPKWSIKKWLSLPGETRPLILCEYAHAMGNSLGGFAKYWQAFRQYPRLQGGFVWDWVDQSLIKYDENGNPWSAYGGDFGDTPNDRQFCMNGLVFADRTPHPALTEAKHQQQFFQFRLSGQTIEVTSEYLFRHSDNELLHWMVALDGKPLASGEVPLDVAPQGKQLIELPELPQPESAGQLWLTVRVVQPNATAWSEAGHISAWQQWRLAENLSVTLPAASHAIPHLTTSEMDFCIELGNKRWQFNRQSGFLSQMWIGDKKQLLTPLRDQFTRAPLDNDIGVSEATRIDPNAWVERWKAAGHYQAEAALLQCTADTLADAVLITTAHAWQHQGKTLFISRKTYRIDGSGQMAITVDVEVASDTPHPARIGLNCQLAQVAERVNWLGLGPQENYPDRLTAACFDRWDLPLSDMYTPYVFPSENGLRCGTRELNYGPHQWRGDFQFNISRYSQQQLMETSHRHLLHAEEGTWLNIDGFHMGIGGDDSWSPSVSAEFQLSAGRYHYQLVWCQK
Chain of Dual specificity protein phosphatase 3 (P51452 whole entry): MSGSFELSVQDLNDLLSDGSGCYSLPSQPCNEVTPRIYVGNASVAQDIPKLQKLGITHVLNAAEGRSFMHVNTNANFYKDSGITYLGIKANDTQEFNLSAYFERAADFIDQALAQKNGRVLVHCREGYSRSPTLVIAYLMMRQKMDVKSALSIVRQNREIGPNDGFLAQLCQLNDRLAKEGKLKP
Chain of Genome polyprotein (P29990 2492-3391 limits assumed): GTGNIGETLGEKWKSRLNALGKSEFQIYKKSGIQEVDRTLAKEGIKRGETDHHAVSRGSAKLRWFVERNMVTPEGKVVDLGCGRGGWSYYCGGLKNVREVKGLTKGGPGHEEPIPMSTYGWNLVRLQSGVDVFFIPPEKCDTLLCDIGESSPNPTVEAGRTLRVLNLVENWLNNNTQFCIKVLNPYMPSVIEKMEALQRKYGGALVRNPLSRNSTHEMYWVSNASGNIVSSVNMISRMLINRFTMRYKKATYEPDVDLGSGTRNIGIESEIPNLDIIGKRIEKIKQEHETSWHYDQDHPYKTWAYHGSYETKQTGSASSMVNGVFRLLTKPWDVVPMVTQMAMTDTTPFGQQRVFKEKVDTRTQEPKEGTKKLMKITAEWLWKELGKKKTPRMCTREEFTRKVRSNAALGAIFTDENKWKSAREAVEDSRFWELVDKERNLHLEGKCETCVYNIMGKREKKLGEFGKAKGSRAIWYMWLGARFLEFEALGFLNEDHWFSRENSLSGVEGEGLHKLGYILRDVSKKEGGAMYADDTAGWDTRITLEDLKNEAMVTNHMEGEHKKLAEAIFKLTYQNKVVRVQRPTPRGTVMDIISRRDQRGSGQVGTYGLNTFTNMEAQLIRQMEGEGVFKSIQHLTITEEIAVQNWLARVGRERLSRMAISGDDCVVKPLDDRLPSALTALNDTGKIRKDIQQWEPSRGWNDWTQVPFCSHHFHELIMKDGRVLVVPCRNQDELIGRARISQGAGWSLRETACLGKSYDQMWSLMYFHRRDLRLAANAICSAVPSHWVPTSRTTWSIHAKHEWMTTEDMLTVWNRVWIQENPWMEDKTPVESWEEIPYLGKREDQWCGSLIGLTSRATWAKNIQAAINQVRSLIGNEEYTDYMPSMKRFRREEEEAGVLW
Chain of Tyrosine-protein phosphatase non-receptor type 11 (Q06124 whole entry): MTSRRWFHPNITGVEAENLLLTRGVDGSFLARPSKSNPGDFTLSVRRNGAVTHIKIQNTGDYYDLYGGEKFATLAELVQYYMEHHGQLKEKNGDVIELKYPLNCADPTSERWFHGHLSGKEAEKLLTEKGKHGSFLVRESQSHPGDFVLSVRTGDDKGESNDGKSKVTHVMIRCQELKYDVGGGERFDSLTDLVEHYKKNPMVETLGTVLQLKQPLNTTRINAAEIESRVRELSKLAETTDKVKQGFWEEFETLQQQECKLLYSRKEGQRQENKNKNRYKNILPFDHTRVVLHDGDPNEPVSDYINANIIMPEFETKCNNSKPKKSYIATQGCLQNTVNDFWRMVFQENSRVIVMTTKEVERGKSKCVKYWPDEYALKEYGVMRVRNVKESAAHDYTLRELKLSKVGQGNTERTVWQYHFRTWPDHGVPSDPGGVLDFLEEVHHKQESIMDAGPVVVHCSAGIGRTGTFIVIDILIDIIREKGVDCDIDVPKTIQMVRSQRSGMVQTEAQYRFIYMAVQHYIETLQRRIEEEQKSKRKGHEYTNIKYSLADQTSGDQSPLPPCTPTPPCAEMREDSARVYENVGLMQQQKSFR
Chain of Tyrosine-protein phosphatase non-receptor type 5 (P54829 whole entry): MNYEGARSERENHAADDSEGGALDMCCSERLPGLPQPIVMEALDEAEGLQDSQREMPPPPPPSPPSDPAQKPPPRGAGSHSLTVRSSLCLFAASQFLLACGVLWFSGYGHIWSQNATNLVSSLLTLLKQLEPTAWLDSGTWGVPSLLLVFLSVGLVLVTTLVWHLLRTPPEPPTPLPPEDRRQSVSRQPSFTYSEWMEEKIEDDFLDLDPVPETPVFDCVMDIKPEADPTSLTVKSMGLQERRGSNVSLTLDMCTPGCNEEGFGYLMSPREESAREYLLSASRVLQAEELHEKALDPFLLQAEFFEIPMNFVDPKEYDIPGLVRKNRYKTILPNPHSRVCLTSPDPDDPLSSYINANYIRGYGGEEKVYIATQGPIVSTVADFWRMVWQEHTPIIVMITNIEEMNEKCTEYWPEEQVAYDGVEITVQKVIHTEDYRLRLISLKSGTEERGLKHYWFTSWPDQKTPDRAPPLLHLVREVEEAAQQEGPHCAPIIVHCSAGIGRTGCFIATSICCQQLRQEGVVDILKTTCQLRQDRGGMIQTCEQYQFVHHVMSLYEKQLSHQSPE

CC(C)n1c(N2CCN(C(=O)c3cccs3)CC2)nc2ccccc21
AC50 [1]: 10.6 µM (active)

O=C(CSc1ccc2nnc(-c3ccccn3)n2n1)NCc1ccco1
AC50 [2]: 99 µM (active)

O=C1c2cccc3c([N+](=O)[O-])ccc(c23)C(=O)N1c1ccc(Cl)cn1
EC50 (Beta-galactosidase): > 40 µM (inactive) | IC50 [3]: 15.5 µM (active) | EC50 [4]: 1.58 µM (active) | EC50 [5]: 0.905 µM (active) | CC50 [6]: 1.34 µM (active) | CC50 [7]: 10.1 µM (active) | IC50 (cells): 8.7 µM (active)

COc1ccccc1Nc1ccc([N+](=O)[O-])cc1N
IC50 [8]: 8.01 µM (active) | IC50 [9]: 34.5 µM (inactive) | IC50 [10]: 3.2 µM (active)

O=C1C(Cl)=C(Nc2ccc3c[nH]nc3c2)C(=O)c2ccccc21
EC50 [11]: 0.928 µM (active) | EC50 (Streptococcus): 15.1 µM (active) | CC50 (Vero): 9.81 µM (active) | AC50 (INS1): 3.56 µM (active) | CC50 [12]: 2.49 µM (active)

CCOc1ccc(-c2cnc(N)n2C)cc1
AC50 [13]: 93.9 µM (active)

Cc1cccc(-c2nnc(SCC#N)n2-c2ccccc2)c1
AC50 [1]: 3.22 µM (active)

Cc1ccc(-n2c3nc(=O)[nH]c(=O)c-3cc3cc([N+](=O)[O-])ccc32)cc1
IC50 (Hexokinase HKDC1): 10.3 µM (active) | CC50 (Vero): > 40 µM (active) | IC50 (Genome polyprotein): 22.9 µM (active) | IC50 [14]: > 128 µM (inactive)

COc1cc(/C=C/C=C2/CC/C(=C/C=C/c3ccc(O)c(OC)c3)C2=O)ccc1O
IC50 [15]: 8.22 µM (active) | IC50 [16]: 99.4 µM (active) | CC50 [12]: 24.1 µM (active)

O=C(c1ccc(Cl)cc1)N(CCN1CCC(n2c(=O)[nH]c3ccccc32)CC1)C(=O)c1ccc(Cl)cc1
IC50 (Phospholipase D1): 0.21 µM (active) | IC50 (Phospholipase D2): 2.7 µM (active)

O=C(NCCN1CCC2(CC1)C(=O)NCN2c1cccc(Br)c1)c1ccc2ccccc2c1
IC50 (Phospholipase D1): 4.6 µM (active) | IC50 (Phospholipase D2): 0.68 µM (active)

O=C(NCCN1CCC(n2c(=O)[nH]c3ccccc32)CC1)NCc1cccc(F)c1
IC50 (Phospholipase D1): 0.107 µM (active) | IC50 (Phospholipase D2): 1.8 µM (active)
